Data taken from ChEMBL document CHEMBL1201862, “PubChem BioAssay data set” (2004).
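Five compound concentrations were applied to cells in 96-well plates for 48 hours; endpoints were derived by simple linear interpolation of the resulting dose-response curve. At the GI50, growth is halved.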 Calls of active or inactive are those of the source. Cut-off read from the data, not from the text of the source: active = GI50 up to about 1.1 µM and inactive = higher.

What was measured:
Assay in all cases: DTP human tumour cell line panel, 48 h
CCRF-CEM = system: CCRF-CEM
SK-MEL-5 = system: SK-MEL-5
OVCAR-4 = system: OVCAR-4
SK-MEL-28 = system: SK-MEL-28
HCC 2998 = system: HCC 2998
SW-620 = system: SW-620
TK-10 = system: TK-10
DMS-114 = system: DMS-114
SNB-75 = system: SNB-75
LXFL 529 = system: LXFL 529
UO-31 = system: UO-31
K562 = system: K562
ACHN = system: ACHN
NCI-H23 = system: NCI-H23
RPMI-8226 = system: RPMI-8226
NCI-H226 = system: NCI-H226
EKVX = system: EKVX

Measured: GI50

C/C(CCn1[nH]c(=O)ccc1=O)=N\O
inactive: CCRF-CEM > 100 µM | SK-MEL-5 > 100 µM | OVCAR-4 > 100 µM | SK-MEL-28 > 100 µM | HCC 2998 > 100 µM | SW-620 > 100 µM | TK-10 > 100 µM | DMS-114 > 100 µM | SNB-75 > 100 µM | LXFL 529 > 100 µM | UO-31 > 100 µM | K562 > 100 µM | ACHN > 100 µM | NCI-H23 > 100 µM | RPMI-8226 > 100 µM | NCI-H226 > 100 µM | EKVX > 100 µM

O=C(CC1=Nc2nnc(CCCCCCCc3nnc4n3C(=O)C(CC(=O)c3ccc5ccccc5c3)=N4)n2C1=O)c1ccc2ccccc2c1
inactive: CCRF-CEM > 100 µM | OVCAR-4 > 100 µM | SK-MEL-28 > 100 µM | HCC 2998 > 100 µM | SW-620 > 100 µM | TK-10 > 100 µM | DMS-114 > 100 µM | SNB-75 > 100 µM | LXFL 529 > 100 µM | UO-31 > 100 µM | K562 > 100 µM | ACHN > 100 µM | NCI-H23 > 100 µM | RPMI-8226 > 100 µM | NCI-H226 > 100 µM | EKVX 63.5 µM

CCOC(=O)CC1=Nc2ccccc2SC1
inactive: SK-MEL-5 > 100 µM | OVCAR-4 > 100 µM | SK-MEL-28 1.29 µM | HCC 2998 > 100 µM | SW-620 > 100 µM | TK-10 > 100 µM | DMS-114 > 100 µM | SNB-75 > 100 µM | LXFL 529 > 100 µM | UO-31 > 100 µM | ACHN > 100 µM | NCI-H23 > 100 µM | NCI-H226 > 100 µM | EKVX > 100 µM

C[C@]12CC/C(=N\O)C=C1CC[C@@H]1C2CC[C@@]2(C)C1CC[C@@H]2OC1CCCCO1 (stereo partly drawn)
inactive: SK-MEL-5 32.1 µM | OVCAR-4 15.6 µM | SK-MEL-28 22.7 µM | HCC 2998 15.4 µM | SW-620 18.1 µM | TK-10 22.8 µM | DMS-114 22 µM | SNB-75 18.9 µM | LXFL 529 17.2 µM | UO-31 21.7 µM | K562 19 µM | ACHN 16.3 µM | NCI-H23 17.3 µM | RPMI-8226 15.7 µM | EKVX 17.7 µM

C[C@@H](NC1CCC[C@@H]1O)c1ccccc1 (stereo partly drawn)
inactive: CCRF-CEM > 100 µM | SK-MEL-5 > 100 µM | OVCAR-4 > 100 µM | SK-MEL-28 > 100 µM | HCC 2998 > 100 µM | SW-620 > 100 µM | TK-10 > 100 µM | DMS-114 > 100 µM | SNB-75 > 100 µM | LXFL 529 > 100 µM | UO-31 > 100 µM | K562 > 100 µM | ACHN > 100 µM | RPMI-8226 > 100 µM | NCI-H226 > 100 µM | EKVX > 100 µM

O=C(NO)C12C3C4C1C1C2C3C41C(=O)NO (stereo not drawn)
inactive: CCRF-CEM > 100 µM | SK-MEL-5 > 100 µM | SK-MEL-28 > 100 µM | HCC 2998 > 100 µM | TK-10 > 100 µM | DMS-114 > 100 µM | SNB-75 > 100 µM | LXFL 529 37.2 µM | UO-31 > 100 µM | K562 > 100 µM | ACHN > 100 µM | RPMI-8226 > 100 µM | NCI-H226 > 100 µM | EKVX > 100 µM

CCC(=O)NCC1(c2c[nH]c3ccccc23)SCCS1
inactive: CCRF-CEM > 100 µM | SK-MEL-5 > 100 µM | OVCAR-4 > 100 µM | SK-MEL-28 > 100 µM | HCC 2998 > 100 µM | SW-620 > 100 µM | TK-10 > 100 µM | DMS-114 47.5 µM | SNB-75 > 100 µM | LXFL 529 > 100 µM | K562 > 100 µM | ACHN 82 µM | NCI-H23 > 100 µM | RPMI-8226 > 100 µM | NCI-H226 > 100 µM | EKVX > 100 µM

O=C1/C(=N\O)c2ccccc2S1(=O)=O
inactive: CCRF-CEM 60 µM | SK-MEL-5 > 100 µM | OVCAR-4 > 100 µM | HCC 2998 18.4 µM | SW-620 > 100 µM | TK-10 61.5 µM | DMS-114 > 100 µM | SNB-75 66.2 µM | LXFL 529 69.2 µM | UO-31 > 100 µM | K562 > 100 µM | ACHN > 100 µM | RPMI-8226 64.3 µM | NCI-H226 19.4 µM

O=C(/C(=C\c1ccc(Cl)cc1)c1ccccc1)c1ccccc1
inactive: CCRF-CEM > 100 µM | OVCAR-4 26.3 µM | SK-MEL-28 > 100 µM | HCC 2998 40.5 µM | SW-620 57.8 µM | TK-10 > 100 µM | DMS-114 21.4 µM | SNB-75 88.9 µM | LXFL 529 55.5 µM | UO-31 65.2 µM | K562 54.1 µM | ACHN 38.8 µM | NCI-H23 72.6 µM | RPMI-8226 38.2 µM | NCI-H226 39.6 µM | EKVX 39.3 µM
